Key:
HeLa cells = test: Cell invasiveness, Boyden chamber; format: cell-based; conditions: Homo sapiens, MA 10 μM, 24 h
Protocol: The 96-multiwell Boyden chambers (Merck Millipore, MA, USA) assay was performed for cellular invasiveness detection. Cancer cells (5 × 10^4 cells/well) were re-suspended in free-serum DMEM and placed in the upper Boyden chamber compartment. Free-serum DMEM was also placed in the lower compartment of the chamber. Afterwards, the Boyden chamber was placed at 37°C and 95% air/5% CO2 for 24 h. Invasive cancer cells within the lower chamber compartment were detected by using the calcein-AM (60 nM, 1 h) assay at 37°C. Calcein-fluorescence was measured at λexcitation = 485 nm and λemission = 520 nm in a Nunclon microplate reader (Roskilde, Denmark).
S1 Figure. Cancer invasiveness assay in metastatic cancer cells exposed to MA (A) and perhexiline (B) for 24 h. All cancer cell invasiveness was compared with MDA-MB-231 cells, which are cancer cells with the highest invasiveness ability. n=3; *P < 0.05 vs. MDA-MB-231 non-treated cells.

MDA-MB-468 cells = test: OxPhos flux (oligomycin-sensitive respiration) in intact cells; format: cell-based, human; conditions: +MA 50 μM, 24 h
Protocol: For oxidative phosphorylation (OxPhos) flux, cells (2–5 mg protein/mL) were incubated at 37°C in air saturated KR medium plus 5 mM glucose. To distinguish the oxygen consumption associated to OxPhos, the cells were incubated with 5 μM oligomycin (Sigma-Aldrich, MO, USA), a potent, specific, and permeable inhibitor of the mitochondrial ATP synthase. The net OxPhos rate was determined by using a Clark type electrode, as previously described and by using a high-resolution respirometer (Oroboros Instruments, Innsbruck, Austria) at 37°C. The contribution of OxPhos and glycolysis to the cellular ATP supply was determined, respectively, from the net OxPhos rate (oligomycin-sensitive respiration) multiplied by the ATP/O or P»/O2 ratio that corresponds to 2.5 or 5, and from the rate of lactate production, assuming a stoichiometry of 1 mol of ATP produced per 1 mol of lactate produced.

**Q.** For Cc1ccc(Cl)c(Nc2ccccc2C(=O)O)c1Cl [MA, Meclofenamic acid], which inhibition at 10 µM (HeLa cells) is on record?
**A.** The inhibition at 10 µM was 65%.

**Q.** What about the OxPhos flux (MDA-MB-468 cells) of the same compound?
**A.** The OxPhos flux was 4.8 ± 0.8 nmol O2 min^-1 mg protein^-1.

— paper PMC11407620, “Repurposing auranofin and meclofenamic acid as energy-metabolism inhibitors and anti-cancer drugs” (PLOS ONE, 2024)
